Here are results for 16 molecules from US5814627A, “3, 5-disubstituted and 3, 4, 5-trisubstituted 2-isoxazolines and isoxazoles, process for their preparation and their use as pharmaceuticals” (Hoechst Aktienegesellschaft, priority 1994, dated 1998).

Usually IC50 stands for the midpoint of a concentration-inhibition curve. By ED50 is commonly meant the midpoint of the dose-response relation. Low values mean an effect at a small dose, high ones a need for a large dose.

Structures can show the parent of a compound that is named as a salt.

One assay concerns adjuvant/arthritis model. The assay is described as follows: Test 6: antiarthritic effect in the adjuvant/arthritis model. Type of assay: in vivo, rat (Wistar-Lewis). The following applies: daily for 17 days, rat; for inhibition in vivo at 25 mg/kg / inhibition in vivo at 50 mg/kg: Rattus norvegicus, po, 408 h, read-out: Test 6 Paw volume (% inhibition); for inhibition in vivo at 50 mg/kg: 50 mg/kg orally.

For assay [1], the system named is tumor cell line 20-10-5S (hybridoma cell line). The assay is described as follows: Test 8: Inhibition of tumor cell proliferation. Format: cell-based. The following applies: 48 h + 16 h tritiated thymidine incorporation; 20-10-5S cells. Background: Incorporation of labelled thymidine or its analogues reports DNA synthesis.
Assay [2] concerns cyclooxygenase-dependent thrombocyte aggregation. Briefly: Test 5: Cyclooxygenase-dependent thrombocyte aggregation. Format: cell-based, human. The following applies: arachidonic acid as inducer. As for the experimental part:
TEST 5. Cyclooxygenase-dependent thrombocyte aggregation
Platelet-rich plasma (PRP): to inhibit coagulation, human blood was treated with 1/10 of its volume of 3.8% sodium citrate solution. Centrifugation then takes place at 105×g for 20 minutes and the supernatant (PRP) is removed. 200 μl of PRP were preincubated, at 37° C. for 10 minutes, together with 30 μl of test substance in a PAP4 aggregometer (BioData). The test substance was dissolved in organic solvent and diluted 1:30 with buffer (50 mM TisHCl, pH 8.0; 90 mM NaCl). Aggregation is triggered with 20 μl of inducer. During the aggregation, stirring takes place at 800 rpm. Arachidonic acid, 5 mg/ml, was used as the inducer.
(§1) The values in the table show the concentration of the test substance which was employed in μM and, besides this, the residual activity measured in percent based on the control, which was set to be 100%. The interleukin is additionally indicated in test 4.

The test system of assay [3] is PAF-induced asthma attack. Briefly: Test 7: antiasthmatic effect, PAF-induced asthma attack. Type of assay: in vivo. As to conditions: Cavia porcellus; i.d., 15 minutes before PAF; guinea pig. As for the experimental part: Test 7: Testing for antiasthmatic effect
Anesthetized guinea pigs, which were cannulated in the jugular vein to allow injection of the PAF, were used for testing for antiasthmatic effect. The test preparations were also administered intravenously (i.v.), 5 min before PAF administration, into the blood stream through the same venous cannula, or else administered intraduodenally (i.d.), 15 minutes before the PAF, through an opening in the duodenum which had been installed and cannulated surgically. The bronchial width was recorded in an overflow pneumonogram before and after administering the preparation. Evaluation: ED50 in mg/kg i.d. as compared with the PAF-induced asthma attack.

Assay [4] concerns polymorphonuclear leucocytes (PMNL). Briefly: Test 1: Release of proteolytic activity from human PMNL. Type of assay: cell-based. As for the experimental part: Isolation of polymorphonuclear leucocytes (PMNL) from human peripheral blood for carrying out tests 1 and 2 10 ml of human blood were diluted with 10 ml of HBSS (Serva) and underlaid with 15 ml of Lymphoprep (Dr. Molter GmbH, Heidelberg). […] A white ring, composed of mononuclear cells, is located between these two phases. The lowermost phase is composed of erythrocytes which are covered with a white layer of PMNL. The uppermost phase, and also the Lymphoprep and the white ring, were carefully removed using a syringe. The remaining sediment was carefully resuspended in 15 ml of 3% dextran in PM16 (mw: 485,000, Sigma, Deisenhofen). The suspension was then left to stand at room temperature for one hour. During this time, the erythrocytes sedimented while the PMNL remained in the supernatant. The supernatant was removed, diluted with an approximately equal volume of PM16, and centrifuged for 15 minutes at 400×g. Should the PMNL sediment be heavily contaminated with erythrocytes, it is necessary to carry out a hypotonic lysis. To do this, the sediment was resuspended in 750 μl of water. After exactly 15 seconds, the suspension was diluted with approximately 7 ml of PM16 and centrifuged for 10 minutes at 400×g. If necessary, this lysis was repeated once more. Otherwise, the PMNL sediment was resuspended in a suitable medium. 250 μl of PMNL (5·10^6 cells/ml of PBS containing 7.5 mM glucose) were incubated at 37° C. for 20 minutes with 1 μl of test substance. 1 μl of cytochalasin B (5 μg/ml of test mixture) was then added and the mixture was incubated at 37° C. for a further 5 minutes. Following the addition of 1 μl of […] necrosis factor alpha (TNF; 30 ng/ml of test mixture), the incubation was continued for 5 minutes. The release was started using 1 μl of fMLP (10 nmol/l of test mixture). After 60 minutes at 37° C., the reaction was terminated by cooling the samples down to 0° C. The samples were then centrifuged, and the supernatant was removed and frozen down. Cytochalasin B and fMLP were dissolved in DMSO and TNF was diluted with buffer. 50 μl of the supernatant were mixed with 175 μl of buffer (100 mM HEPES, pH 7.5; 500 mM NaCl) in a 96-well microtiter plate. Following the addition of 25 μl of substrate (methoxysuccinyl-[…]-nitroanilide), the extinction of each well was measured at 405 nm after 0, 5, 10, 15, 30 and 60 minutes. […] The interleukin is additionally indicated in test 4.

In assay [5] the test system is leukotriene B4 synthesis in white blood cells. Briefly: Test 3: LTB4 formation by white blood cells. Format: cell-based. As to conditions: Homo sapiens; 10 μM; read-out: Test 3 residual activity (LTB4 formation), percent of control. As for the experimental part:
TEST 3. LTB4 formation by white blood cells
Isolation of white blood cells:
40 ml of human blood were mixed with 8 ml of 6% dextran solution (dextran, mw: 480,000 in PM16). After one hour at room temperature, the supernatant,which was composed of white blood cells, was removed, diluted with an equal volume of PM16, and centrifuged for 15 minutes at 300×g (1600 rpm). The sediment was next resuspended in approximately 5-6 ml of PM16 and, once the cell count had been determined in a Coulter Counter, adjusted to 10^7 cells/ml.
The test mixture comprised 0.24 ml of cell suspension, 0.03 ml of 20 mM CaCl2 /5 mM MgCl2 and 5 μl of test substance. Following 15 minutes of preincubation at 37° C., the reaction was started with 0.03 ml of A23187/glutathione (100 μg of A23187/ml; 15.4 μg of glutathione/ml). The incubation was terminated after 5 minutes at 37° C. by immediate cooling of the samples down to 0° C. After centrifuging for 2 minutes in an Eppendorff Centrifuge (0° C.), the supernatant was removed and examined chromatographically.
High pressure liquid chromatography (HPLC): the HPLC equipment comprises a Kratos pump (Spectro-flow 400), a cooled automatic BT 7041 sample injector (Biotronik) having a 75 μl sample loop, a Nucleosil C18 column (100*3 mm, 5 μm particles of Chrompack), a UV detector (Kratos) Spectroflow 757 (wavelength: 280 nm, measurement range: 0.1 AUFS, time constant: 0.5 s) and a Spectra Physics integrator (SP 4270). The eluent (725 ml of methanol, 275 ml of water and 0.1 ml of acetic acid) was supplied at a flow rate of 0.7 ml/minute and at a pressure of about 100 bar.
When doing this, the measurement range which has been set can be examined and altered if necessary. It is also vital to measure the test substances at the particular test concentration (e.g.: 10^-5 M) in PM16 before the cell incubation, since the test substances might conceal the LTB4 peak. If this is the case, a lower concentration must be selected.
as §1

Where [6] appears, read: Homo sapiens, read-out: Test 5 residual activity (cyclooxygenase-dependent thrombocyte aggregation), percent of control.

Method for adjuvant/arthritis model: Male rats of a Wistar-Lewis strain (Mollegaard/Denmark) were used as experimental animals. The body weight is between 160 and 200 g. Subplantar injection of 0.1 ml of Freund's adjuvant (=6 mg of Mycobacterium butyricum suspension, Difco Lab./Detroit, Mich. USA, per ml of heavy white paraffin oil, Merck, Darmstadt) into the root of the tail resulted, on the 10th to 14th day of the experiment, in immunopathological processes and chronic inflammations, particularly in the form of arthritic and periarthritic symptoms, at other sites in the body (secondary lesions). The animals were fed ad libitum with the standard feed Altromin-R, from Altrogge, Lage, and provided with tap water. The animals were given 60 mg of codein per kg as an analgesic from the 14th day to the end of the experiment. The test substances were administered orally as a CMC suspension, in an injection volume of 1 ml/100 g of body weight, on each day (in all for 17 days), beginning on the day of the adjuvant administration. The volumes of each of the hind paws, and the body weight, were measured on the first and on the 18th day of the experiment. Diminution in the increase of paw volume, as compared with the untreated control group, served as the criterion of activity, with the two hind paws being averaged.

`C[C@H](O)[C@@H]1CC(c2cc(C(C)(C)C)c(O)c(C(C)(C)C)c2)=NO1` (relative stereo) [Example 20]: the inhibition in vivo at 25 mg/kg with adjuvant/arthritis model (25 mg/kg orally) amounted to 67%. Moreover, the IC50 in assay [1] is below 5 µM. Moreover, the activity at 10 µM in assay [2] (setting [6]) came out at 100%. In addition, the ED50 in assay [3] is around 50 mg/kg.

For the molecule `CC(OC(=O)[C@@H](N)Cc1ccccc1)C1CC(c2cc(C(C)(C)C)c(O)c(C(C)(C)C)c2)=NO1` (single isomer, unassigned) [Example 75, L-Phenylalanine-1-(3-(4-hydroxy-3,5-di-tert-butylphenyl)isoxazolin-5-yl)ethyl ester hydrochloride], the “Test 6 Paw volume (% inhibition)” value in the assay with adjuvant/arthritis model (25 mg/kg orally, hydrochloride) was 76%. Further, the “Test 1 residual activity (release of proteolytic activity), percent of control” value in assay [4] (10 μM, hydrochloride) is 49%. In addition, the activity at 1 µM in assay [4] (Homo sapiens, PMNL, 1 μM, read-out: Test 1 residual activity (release of proteolytic activity), percent of control) was 89%. In assay [1], the IC50 lay in the range of 5 to 10 µM. For the same molecule, the “Test 5 residual activity (cyclooxygenase-dependent thrombocyte aggregation), percent of control” value in assay [2] (25 μM, hydrochloride) is reported as 98%.

Regarding `COP(=O)(OC)C1CC(c2cc(C(C)(C)C)c(O)c(C(C)(C)C)c2)=NO1` (stereo not drawn) [Example 5], the activity at 100 µM in assay [2] (setting [6]) was determined as 98%. This molecule yielded an ED50 in assay [3] below 10 mg/kg.

In the case of `CC(C)(C)c1cc(C2=NOC(P(=O)(O)O)C2)cc(C(C)(C)C)c1O` (stereo not drawn) [Example 6, 3-(4-Hydroxy-3,5-di-tert-butylphenyl)-2-isoxazolin-5-ylphosphonic acid], the 50% effective dose (ED50) in assay [3] is around 50 mg/kg.

With `COP(=O)(O)C1CC(c2cc(C(C)(C)C)c(O)c(C(C)(C)C)c2)=NO1` (stereo not drawn) [Example 7, Monomethyl 3-(4-hydroxy-3,5-di-tert-butylphenyl)-2-isoxazolin-5-ylphosphonate], the activity at 100 µM in assay [2] (setting [6]) stood at 95%. In assay [3], this molecule returned an ED50 of 10 to 30 mg/kg.

In the case of `Cc1cc(CNC(=O)C2(C)CC(c3cc(C(C)(C)C)c(O)c(C(C)(C)C)c3)=NO2)cc(C)c1O` (stereo not drawn) [Example 14], the activity at 10 µM in assay [2] (setting [6]) is 100%. In addition, the ED50 in assay [3] is 10 to 50 mg/kg.

With `CC(C)(OCc1cc(-c2cc(C(C)(C)C)c(O)c(C(C)(C)C)c2)no1)C(=O)O` [Example 36, 2-(3-(4-Hydroxy-3,5-di-tert-butylphenyl)isoxazol-5-ylmethoxy)-2-methylpropionic acid], in assay [5], the activity at 10 µM was found to be 93%. For the same molecule, the activity at 100 µM in assay [2] (setting [6]) amounted to 87%.

On to `CC(C)(C)c1cc(-c2cc(COC(=O)NCC(=O)O)on2)cc(C(C)(C)C)c1O` [Example 40, N-(3-(4-Hydroxy-3,5-di-tert-butylphenyl)isoxazol-5-ylmethoxycarbonyl)glycine], for which the IC50 in assay [1] is below 5 µM. The median effective dose (ED50) in assay [3] fell in the range of 1 to 3 mg/kg.

Regarding `CC(C)(C)c1cc(-c2cc(CCOC(=O)NCC(=O)O)on2)cc(C(C)(C)C)c1O` [Example 43, N-(2-(4-Hydroxy-3,5-di-tert-butylphenyl)isoxazol-5-ylethoxycarbonyl)glycine], the activity at 10 µM in assay [5] stood at 93%. Moreover, the activity at 100 µM in assay [2] (setting [6]) stood at 99%.

`CC(C)(C)c1cc(-c2cc(CN)on2)cc(C(C)(C)C)c1O` [Example 48]: in the assay with adjuvant/arthritis model, the inhibition in vivo at 50 mg/kg is 60%. Moreover, in assay [1], the IC50 lay in the range of 5 to 10 µM. Further, the ED50 in assay [3] lay in the range of 10 to 50 mg/kg.

As to `Cc1oncc1C(=O)NCc1cc(-c2cc(C(C)(C)C)c(O)c(C(C)(C)C)c2)no1` [Example 52], the half-maximal inhibitory concentration (IC50) in assay [1] was below 5 µM. Moreover, the ED50 in assay [3] was in the range of 3 to 10 mg/kg.

Consider `C/C(O)=C(\C#N)C(=O)NCc1cc(-c2cc(C(C)(C)C)c(O)c(C(C)(C)C)c2)no1` [Example 53, 2-Cyano-3-hydroxybut-2-enecarboxylic acid(3-(4-hydroxy-3,5-di-tert-butylphenyl)isoxazol-5-ylmethyl)amide], for which the inhibition in vivo at 25 mg/kg in the assay with adjuvant/arthritis model (25 mg/kg orally) turned out to be 48%. In addition, in assay [1], the IC50 is 8 to 10 µM. The molecule also registered an ED50 in assay [3] of 10 to 50 mg/kg.

As to `CCOC(=O)CNC(=O)NCc1cc(-c2cc(C(C)(C)C)c(O)c(C(C)(C)C)c2)no1` [Example 54, Ethyl (3-(3-(4-hydroxy-3,5-di-tert-butylphenyl)isoxazol-5-ylmethyl)ureido) acetate], the IC50 in assay [1] lay within 5 to 10 µM. Further, in assay [3], the 50% effective dose (ED50) was in the range of 1 to 3 mg/kg.

Molecule `CC(C)(C)c1cc(-c2cc(CNC(=O)NCC(=O)O)on2)cc(C(C)(C)C)c1O` [Example 56, (3-(3-(4-Hydroxy-3,5-di-tert-butylphenyl)isoxazol-5-ylmethyl)ureido)acetic acid] registered an ED50 in assay [3] of around 50 mg/kg.

For the molecule `CC(C)(C)c1cc(C2CC(c3ccncc3)=NO2)cc(C(C)(C)C)c1O` (stereo not drawn) [Example 60, 3-(4-Pyridyl)-5-(4-hydroxy-3,5-di-tert-butylphenyl)-2-isoxazoline], the activity at 10 µM in assay [5] was determined as 88%.

Turning to `CC(OC(=O)CN)c1cc(-c2cc(C(C)(C)C)c(O)c(C(C)(C)C)c2)no1` (stereo not drawn) [Example 76, Glycine-1-(3-(4-hydroxy-3,5-di-tert-butylphenyl)isoxazol-5-yl)ethyl ester hydrochloride], the inhibition in vivo at 50 mg/kg in the assay with adjuvant/arthritis model came out at 70%. Further, the activity at 10 µM in assay [4] (Homo sapiens, PMNL, 10 μM, read-out: Test 1 residual activity (release of proteolytic activity), percent of control) was 68%. Further, in assay [4] (Homo sapiens, PMNL, 100 μM, read-out: Test 1 residual activity (release of proteolytic activity), percent of control), the activity at 100 µM stood at 9%. In addition, the IC50 in assay [1] was 20 µM. Further, the activity at 25 µM in assay [2] (Homo sapiens, 25 μM, read-out: Test 5 residual activity (cyclooxygenase-dependent thrombocyte aggregation), percent of control) was determined as 99%.
